# Measured values as given in US20240239861A1, “GLUCAGON-RECEPTOR SELECTIVE POLYPEPTIDES AND METHODS OF USE THEREOF” (i2O Therapeutics, Inc., priority 2016, published 2024).
# Like-named read-outs stand apart in the source and are kept apart here. *1 amine or outer side, *2 acyl side, *3 side chain or, on linkers, in order; H or OH if unused. Where a SMILES comes first, the peptide text is derived from it. Side-chain parts run from the residue outwards. [ ]: non-standard residue; d: D form. The star is where a group is joined. γGlu = O=C(O)[C@H](CCC(=O)[*:2])N[*:1]; Palmitoyl = CCCCCCCCCCCCCCCC(=O)*; Aib = CC(C)(N)C(=O)O
# What was measured:
# in vivo = settings: male, rat
# Procedure: Peptides were formulated in sterile saline and administered as a 3-hour intravenous infusion to non-fasted male Wistar Han or Sprague-Dawley rats (n=3 per group) via jugular vein cannula at a final dose of 0.3 or 0.1 mg/kg. […] Plasma was prepared by centrifugation and stored at −80° C. until analysis.
# Protein Precipitation: All 96-well plates were coated with a blocking agent to mitigate non-specific binding of peptides. Plasma samples (75 uL) were added to a 96-well plate containing 200 uL of 2:1 ethanol:acetonitrile containing 0.1% TFA and mixed well via aspiration. Plates were capped, vortex-mixed and centrifuged. Supernatants (215 uL) were transferred to a clean 96-well plate, evaporated to dryness under nitrogen flow and then reconstituted in 75 μL of 20% acetonitrile in water containing 0.10% formic acid.
# Solid-Phase Extraction: Samples were diluted 3-fold with 5% NH4OH (aq) and loaded onto an Oasis MAX microElution plate (Waters Corp, Milford, MA) that had been pre-conditioned with 200 uL each of methanol and 5% NH4OH (aq). The plate was washed with 200 uL 5% NH4OH (aq), followed by 200 uL 20% acetonitrile in water. […] Samples were reconstituted in 80 uL 0.1% formic acid in water.
# All calibration standards were prepared in control rat plasma containing K2EDTA and protease inhibitor cocktail. […] Samples were injected onto a 2.1×50 mm reverse phase C18 analytical column, typically a Waters ACQUITY UPLC™ HSS T3, 1.8 μm (Waters Corporation, Milford, MA) or similar. […] Typical flow rates were 600 L/min. The column temperature was held constant at 40 or 45° C. Peptides were quantified my monitoring one or more product ions produced from a multiply charged parent ion.
# human GLP-1R = human GLP-1R (Homo sapiens, UniProt P43220); experiment: Peptide-receptor mediated cAMP accumulation (LANCE Ultra cAMP) in CHO-K1 cells transfected with human GLP-1R; type: cell-based
# human GCGR = human GCGR (Homo sapiens, UniProt P47871); experiment: Peptide-receptor mediated cAMP accumulation (LANCE Ultra cAMP) in CHO-K1 cells transfected with human GCGR; type: cell-based; settings: read-out: GluR pEC50 (converted)
# [1] = hGLP1 pEC50 (cAMP mean (n = 3): 11 point curve starting at 1 nM, Table 3)
# [2] = Table 7, GLP-1R, read-out: GLP-1R pEC50 (converted)
# Sequence of human GLP-1R (P43220 24-463): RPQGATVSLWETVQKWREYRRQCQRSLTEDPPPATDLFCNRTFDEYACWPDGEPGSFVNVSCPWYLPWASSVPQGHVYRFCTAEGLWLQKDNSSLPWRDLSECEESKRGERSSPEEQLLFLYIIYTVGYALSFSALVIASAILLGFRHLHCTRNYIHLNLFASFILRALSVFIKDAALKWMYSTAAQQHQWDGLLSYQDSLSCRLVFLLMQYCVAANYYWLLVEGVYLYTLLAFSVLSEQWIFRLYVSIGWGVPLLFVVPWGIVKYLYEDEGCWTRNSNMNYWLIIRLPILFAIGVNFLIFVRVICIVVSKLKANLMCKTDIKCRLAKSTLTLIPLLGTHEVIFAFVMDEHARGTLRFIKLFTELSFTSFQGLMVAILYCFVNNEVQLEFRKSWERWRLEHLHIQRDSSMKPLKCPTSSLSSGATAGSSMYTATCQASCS
# Sequence of human GCGR (P47871 26-477): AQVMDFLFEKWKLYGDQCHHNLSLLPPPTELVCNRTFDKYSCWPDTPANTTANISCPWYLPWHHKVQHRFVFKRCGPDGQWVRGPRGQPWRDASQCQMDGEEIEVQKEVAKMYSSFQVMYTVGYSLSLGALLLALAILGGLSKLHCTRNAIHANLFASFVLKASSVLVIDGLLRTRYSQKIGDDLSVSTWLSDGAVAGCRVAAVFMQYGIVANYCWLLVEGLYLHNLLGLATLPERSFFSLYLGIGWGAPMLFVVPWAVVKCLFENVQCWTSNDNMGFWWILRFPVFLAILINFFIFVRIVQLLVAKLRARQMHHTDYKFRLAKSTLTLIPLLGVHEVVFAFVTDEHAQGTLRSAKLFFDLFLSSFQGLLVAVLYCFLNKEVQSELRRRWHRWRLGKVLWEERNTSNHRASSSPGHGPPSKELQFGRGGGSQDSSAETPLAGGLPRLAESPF
Structure (SMILES),clearance (in vivo),EC50 (human GLP-1R; [1]),EC50 (human GCGR),EC50 (human GLP-1R; [2])
CC(C)C[C@H](NC(=O)[C@H](Cc1ccc(O)cc1)NC(=O)[C@H](CCCCN)NC(=O)[C@H](CO)NC(=O)[C@H](Cc1ccc(O)cc1)NC(=O)[C@H](CC(=O)O)NC(=O)[C@H](CO)NC(=O)[C@@H](NC(=O)[C@H](Cc1ccccc1)NC(=O)[C@@H](NC(=O)CNC(=O)[C@H](Cc1c[nH]cn1)NC(=O)[C@H](CO)NC(=O)[C@@H](N)Cc1ccc(O)cc1)[C@@H](C)O)[C@@H](C)O)C(=O)N[C@@H](CC(=O)O)C(=O)NC(C)(C)C(=O)N[C@@H](CCCCN)C(=O)N[C@@H](CCCNC(=N)N)C(=O)N[C@@H](C)C(=O)N[C@@H](CCC(N)=O)C(=O)N[C@@H](CCC(=O)O)C(=O)N[C@@H](Cc1ccccc1)C(=O)N[C@H](C(=O)NC(C)(C)C(=O)N[C@@H](Cc1c[nH]c2ccccc12)C(=O)N[C@@H](CC(C)C)C(=O)N[C@@H](CCC(=O)O)C(=O)N[C@@H](CC(=O)O)C(=O)N[C@@H](CCC(=O)O)C(=O)N1CCC[C@H]1C(=O)N[C@@H](CO)C(=O)N[C@@H](CO)C(=O)NCC(=O)N[C@@H](C)C(=O)N1CCC[C@H]1C(=O)N1CCC[C@H]1C(=O)N1CCC[C@H]1C(=O)N[C@@H](CO)C(N)=O)C(C)C [Compound A8] (H-YSHGTFTSDYSKYLD[Aib]KRAQEFV[Aib]WLEDEPSSGAPPPS-NH2; N-terminus assumed),17 mL/min/kg,> 1 nM,,
CC(C)C[C@H](NC(=O)[C@H](Cc1ccc(O)cc1)NC(=O)[C@H](CCCCN)NC(=O)[C@H](CO)NC(=O)[C@H](Cc1ccc(O)cc1)NC(=O)[C@H](CC(=O)O)NC(=O)[C@H](CO)NC(=O)[C@@H](NC(=O)[C@H](Cc1ccccc1)NC(=O)[C@@H](NC(=O)CNC(=O)[C@H](Cc1c[nH]cn1)NC(=O)[C@H](CO)NC(=O)[C@@H](N)Cc1ccc(O)cc1)[C@@H](C)O)[C@@H](C)O)C(=O)N[C@@H](CC(=O)O)C(=O)NC(C)(C)C(=O)N[C@@H](CCCCN)C(=O)N[C@@H](CCCNC(=N)N)C(=O)N[C@@H](C)C(=O)N[C@@H](CCC(N)=O)C(=O)N[C@@H](CCC(=O)O)C(=O)N[C@@H](Cc1ccccc1)C(=O)N[C@H](C(=O)NC(C)(C)C(=O)N[C@@H](Cc1c[nH]c2ccccc12)C(=O)N[C@@H](CC(C)C)C(=O)N[C@@H](CCC(=O)O)C(=O)N[C@@H](CC(=O)O)C(=O)N[C@@H](CCC(=O)O)C(=O)N1CCC[C@H]1C(=O)N[C@@H](CO)C(=O)N[C@@H](CO)C(=O)NCC(=O)N[C@@H](CCCCN)C(=O)N1CCC[C@H]1C(=O)N1CCC[C@H]1C(=O)N1CCC[C@H]1C(=O)N[C@@H](CO)C(=O)O)C(C)C [Compound A20] (H-YSHGTFTSDYSKYLD[Aib]KRAQEFV[Aib]WLEDEPSSGKPPPS-OH; N-terminus assumed),15 mL/min/kg,> 1 nM,,
CC(C)C[C@H](NC(=O)[C@H](Cc1ccc(O)cc1)NC(=O)[C@H](CCCCN)NC(=O)[C@H](CO)NC(=O)[C@H](Cc1ccc(O)cc1)NC(=O)[C@H](CC(=O)O)NC(=O)[C@H](CO)NC(=O)[C@@H](NC(=O)[C@H](Cc1ccccc1)NC(=O)[C@@H](NC(=O)CNC(=O)[C@H](Cc1c[nH]cn1)NC(=O)[C@H](CO)NC(=O)[C@@H](N)Cc1ccc(O)cc1)[C@@H](C)O)[C@@H](C)O)C(=O)N[C@@H](CC(=O)O)C(=O)NC(C)(C)C(=O)N[C@@H](CCCCN)C(=O)N[C@@H](CCCNC(=N)N)C(=O)N[C@@H](C)C(=O)N[C@@H](CCC(N)=O)C(=O)N[C@@H](CCC(=O)O)C(=O)N[C@@H](Cc1ccccc1)C(=O)N[C@H](C(=O)NC(C)(C)C(=O)N[C@@H](Cc1c[nH]c2ccccc12)C(=O)N[C@@H](CC(C)C)C(=O)N[C@@H](CCC(=O)O)C(=O)N[C@@H](CC(=O)O)C(=O)N[C@@H](CCC(=O)O)C(=O)NCC(=O)N1CCC[C@H]1C(=O)N[C@@H](CO)C(=O)N[C@@H](CO)C(=O)NCC(=O)N[C@@H](C)C(=O)N1CCC[C@H]1C(=O)N1CCC[C@H]1C(=O)N1CCC[C@H]1C(=O)N[C@@H](CO)C(=O)O)C(C)C [Compound A28] (H-YSHGTFTSDYSKYLD[Aib]KRAQEFV[Aib]WLEDEGPSSGAPPPS-OH),34.7 mL/min/kg,> 1 nM,,
CCCCCCCCCCCCCCCC(=O)N[C@@H](CCC(=O)NCCCC[C@H](NC(=O)[C@H](CC(=O)O)NC(=O)[C@H](CO)NC(=O)[C@@H](NC(=O)[C@H](Cc1ccccc1)NC(=O)[C@@H](NC(=O)CNC(=O)[C@H](CCC(N)=O)NC(=O)[C@H](CO)NC(=O)[C@@H](N)Cc1ccc(O)cc1)[C@@H](C)O)[C@@H](C)O)C(=O)N[C@@H](CO)C(=O)N[C@@H](CCCCN)C(=O)N[C@@H](Cc1ccc(O)cc1)C(=O)N[C@@H](CC(C)C)C(=O)N[C@@H](CC(=O)O)C(=O)N[C@@H](C)C(=O)N[C@@H](C)C(=O)N[C@@H](CCCNC(=N)N)C(=O)N[C@@H](C)C(=O)N[C@@H](CCC(N)=O)C(=O)N[C@@H](CCC(=O)O)C(=O)N[C@@H](Cc1ccccc1)C(=O)N[C@H](C(=O)N[C@@H](CCCCN)C(=O)N[C@@H](Cc1c[nH]c2ccccc12)C(=O)N[C@@H](CC(C)C)C(=O)N[C@@H](CCC(=O)O)C(=O)N[C@@H](CC(=O)O)C(=O)N[C@@H](CCC(=O)O)C(=O)N1CCC[C@H]1C(=O)N[C@@H](CCCCN)C(=O)N[C@@H](CO)C(=O)N[C@@H](CCCCN)C(=O)N[C@@H](CO)C(=O)N1CCC[C@H]1C(=O)N1CCC[C@H]1C(=O)N1CCC[C@H]1C(=O)N[C@@H](CO)C(N)=O)C(C)C)C(=O)O [Compound B36] (H-YSQGTFTSDK([γGlu-Palmitoyl])SKYLDAARAQEFVKWLEDEPKSKSPPPS-NH2),,,0.00316 nM,7.94 nM
CCCCCCCCCCCCCCCC(=O)N[C@@H](CCC(=O)NCCCC[C@H](NC(=O)[C@@H](NC(=O)[C@H](Cc1ccccc1)NC(=O)[C@H](CCC(=O)O)NC(=O)[C@H](CCC(N)=O)NC(=O)[C@H](C)NC(=O)[C@H](CCCNC(=N)N)NC(=O)[C@H](C)NC(=O)[C@H](CO)NC(=O)[C@H](CC(=O)O)NC(=O)[C@H](CC(C)C)NC(=O)[C@H](Cc1ccc(O)cc1)NC(=O)[C@H](CCCCN)NC(=O)[C@H](CO)NC(=O)[C@H](Cc1ccc(O)cc1)NC(=O)[C@H](CC(=O)O)NC(=O)[C@H](CO)NC(=O)[C@@H](NC(=O)[C@H](Cc1ccccc1)NC(=O)[C@@H](NC(=O)CNC(=O)[C@H](Cc1c[nH]cn1)NC(=O)[C@H](CO)NC(=O)[C@@H](N)Cc1ccc(O)cc1)[C@@H](C)O)[C@@H](C)O)C(C)C)C(=O)N[C@@H](Cc1c[nH]c2ccccc12)C(=O)N[C@@H](CC(C)C)C(=O)N[C@@H](CCC(=O)O)C(=O)N[C@@H](CC(=O)O)C(=O)N[C@@H](CCC(=O)O)C(=O)N1CCC[C@H]1C(=O)N[C@@H](CO)C(=O)N[C@@H](CO)C(=O)NCC(=O)N[C@@H](C)C(=O)N1CCC[C@H]1C(=O)N1CCC[C@H]1C(=O)N1CCC[C@H]1C(=O)N[C@@H](CO)C(N)=O)C(=O)O [Compound B42] (H-YSHGTFTSDYSKYLDSARAQEFVK([γGlu-Palmitoyl])WLEDEPSSGAPPPS-NH2),,,0.2 nM,> 1000 nM
CCCCCCCCCCCCCCCC(=O)N[C@@H](CCC(=O)NCCCC[C@H](NC(=O)[C@H](CC(=O)O)NC(=O)[C@H](CC(C)C)NC(=O)[C@H](Cc1ccc(O)cc1)NC(=O)[C@H](CCCCN)NC(=O)[C@H](CO)NC(=O)[C@H](Cc1ccc(O)cc1)NC(=O)[C@H](CC(=O)O)NC(=O)[C@H](CO)NC(=O)[C@@H](NC(=O)[C@H](Cc1ccccc1)NC(=O)[C@@H](NC(=O)CNC(=O)[C@H](Cc1c[nH]cn1)NC(=O)[C@H](CO)NC(=O)[C@@H](N)Cc1ccc(O)cc1)[C@@H](C)O)[C@@H](C)O)C(=O)N[C@@H](C)C(=O)N[C@@H](CCCNC(=N)N)C(=O)N[C@@H](C)C(=O)N[C@@H](CCC(N)=O)C(=O)N[C@@H](CCC(=O)O)C(=O)N[C@@H](Cc1ccccc1)C(=O)N[C@H](C(=O)N[C@@H](CCCCN)C(=O)N[C@@H](Cc1c[nH]c2ccccc12)C(=O)N[C@@H](CC(C)C)C(=O)N[C@@H](CCC(=O)O)C(=O)N[C@@H](CC(=O)O)C(=O)N[C@@H](CCC(=O)O)C(=O)N1CCC[C@H]1C(=O)N[C@@H](CO)C(=O)N[C@@H](CO)C(=O)NCC(=O)N[C@@H](C)C(=O)N1CCC[C@H]1C(=O)N1CCC[C@H]1C(=O)N1CCC[C@H]1C(=O)N[C@@H](CO)C(N)=O)C(C)C)C(=O)O [Compound B43],,,0.00794 nM,> 1000 nM
CCCCCCCCCCCCCCCC(=O)N[C@@H](CCC(=O)NCCCC[C@H](NC(=O)[C@H](CC(=O)O)NC(=O)[C@H](CO)NC(=O)[C@@H](NC(=O)[C@H](Cc1ccccc1)NC(=O)[C@@H](NC(=O)CNC(=O)[C@H](Cc1c[nH]cn1)NC(=O)[C@H](CO)NC(=O)[C@@H](N)Cc1ccc(O)cc1)[C@@H](C)O)[C@@H](C)O)C(=O)N[C@@H](CO)C(=O)N[C@@H](CCCCN)C(=O)N[C@@H](Cc1ccc(O)cc1)C(=O)N[C@@H](CC(C)C)C(=O)N[C@@H](CC(=O)O)C(=O)N[C@@H](CO)C(=O)N[C@@H](C)C(=O)N[C@@H](CCCNC(=N)N)C(=O)N[C@@H](C)C(=O)N[C@@H](CCC(N)=O)C(=O)N[C@@H](CCC(=O)O)C(=O)N[C@@H](Cc1ccccc1)C(=O)N[C@H](C(=O)N[C@@H](CCCCN)C(=O)N[C@@H](Cc1c[nH]c2ccccc12)C(=O)N[C@@H](CC(C)C)C(=O)N[C@@H](CCC(=O)O)C(=O)N[C@@H](CC(=O)O)C(=O)N[C@@H](CCC(=O)O)C(=O)N1CCC[C@H]1C(=O)N[C@@H](CO)C(=O)N[C@@H](CO)C(=O)NCC(=O)N[C@@H](C)C(=O)N1CCC[C@H]1C(=O)N1CCC[C@H]1C(=O)N1CCC[C@H]1C(=O)N[C@@H](CO)C(N)=O)C(C)C)C(=O)O [Compound B44] (H-YSHGTFTSDK([γGlu-Palmitoyl])SKYLDSARAQEFVKWLEDEPSSGAPPPS-NH2),,,0.00126 nM,63.1 nM
